Results on eleven compounds are retold here after patent US5578596A, “2-alkoxy-5,6,7,8-tetrahydroquinoxaline derivatives, and production method and use thereof” (Asahi Kasei Kogyo Kabushiki Kaisha, priority 1992, dated 1996).

The target of experiment [1] is T1, serotonin 1A (5HT1A) receptor (Rattus norvegicus, UniProt P19327).
T1 construct: The resultant precipitate was used as a rat hippocampal membrane fraction in the following procedures; from tissue; host or cells: hippocampal membrane fraction of male SD rat (7 weeks old; animals from Charles River)
T1 sequence (P19327 1-422): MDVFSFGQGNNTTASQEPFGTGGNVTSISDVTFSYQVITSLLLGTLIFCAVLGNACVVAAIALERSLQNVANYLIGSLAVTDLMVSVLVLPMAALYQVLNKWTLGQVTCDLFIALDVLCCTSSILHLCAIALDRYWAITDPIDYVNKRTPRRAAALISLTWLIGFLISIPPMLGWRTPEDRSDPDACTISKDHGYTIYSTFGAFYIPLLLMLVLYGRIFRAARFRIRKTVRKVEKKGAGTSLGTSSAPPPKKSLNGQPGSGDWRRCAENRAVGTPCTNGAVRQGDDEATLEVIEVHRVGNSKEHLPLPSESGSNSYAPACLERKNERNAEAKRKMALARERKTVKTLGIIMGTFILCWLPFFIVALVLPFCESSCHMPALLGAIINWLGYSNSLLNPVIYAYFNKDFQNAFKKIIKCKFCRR
The experiment is described as follows: Affinity for serotonin 1A (5HT1A) receptor: inhibition of 3H-8-OH-DPAT binding to rat hippocampal membrane fraction. The conditions noted are these: test compound as hydrochloride. On the procedure: 1. Affinity for serotonin 1A (5HT1A) receptor
(A) Preparation of rat hippocampal membrane fraction
A male SD strain rat (7-week old; Charles River) was decapitated, and brain was taken out therefrom quickly. 50 mM Tris-HCl buffer (pH 7.4) was added to the brain under ice cooling to obtain a suspension. The resultant suspension was homogenized, and then subjected to centrifugation at 48000 g for 15 minutes, to thereby obtain a precipitate. The precipitate was resuspended in the same Tris-HCl buffer as used above. The resultant suspension was incubated at 30° C. for 20 minutes to decompose endogenous serotonin of the rat hippocampal membrane, followed by centrifugation at 48000 g for 15 minutes to thereby obtain a precipitate. The resultant precipitate was used as a rat hippocampal membrane fraction in the following procedures.
(B) Method for the evaluation of the binding ability of ^3 H-8-hydroxy-dipropylaminotetralin (^3 H-8-OH-DPAT) to serotonin 1A receptor
The rat hippocampal membrane fraction prepared in step (A) above (about 100 to 200 μg in terms of proteins) was reacted with 0.5 nM (final concentration) ^3 H-8-OH-DPAT (which is commercially available from DuPont-NEN Research Products) and 10 μM (final concentration) pargyline (which is commercially available from Sigma Chemical Company) at 30° C. for 30 minutes to effect a reaction. The resultant reaction mixture was subjected to suction filtration using a Whatman GF/C filter, to thereby terminate the reaction. The radio-activity of ^3 H-8-OH-DPAT adsorbed on the filter was determined using a liquid scintillation counter. The obtained value is regarded as a total amount (TB) of specifically binding ^3 H-8-OH-DPAT and non-specifically binding ^3 H-8-OH-DPAT.
On the other hand, substantially the same procedure as mentioned above was repeated, except that 10 μM (final concentration) serotonin was added to the ^3 H-8-OH-DPAT and pargyline. The radioactivity of ^3 H-8-OH-DPAT adsorbed on the filter was determined in the same manner as mentioned above. The obtained value is regarded as the amount (NB) of non-specifically binding ^3 H-8-OH-DPAT.
Further, substantially the same procedure as mentioned above was repeated, except that, instead of serotonin, a test compound was used in a predetermined concentration. The radioactivity of ^3 H-8-OH-DPAT adsorbed on the filter was determined in the same manner as mentioned above. The obtained value is regarded as the amount (DTB) of binding ^3 H-8-OH-DPAT.
(C) Calculation of Ki value
The inhibition ratio of the test compound (at a certain concentration) against the binding of 3H-8-OH-DPAT (the inhibition ratio is hereinafter referred to simply as "binding inhibition ratio") was calculated according to the following formula:
Binding inhibition ratio (%)=100-(DTB-NB).div.(TB-NB)×100
With respect to each of the test compounds, the binding inhibition ratios at various concentrations (from a higher concentration to a lower concentration) were determined. The binding inhibition ratios were plotted, taking the logarithmic value of the concentration of test compound as the abscissa value, and the binding inhibition ratio as the ordinate value. Then, a curve was drawn by non-linear least square method.
The Ki value was determined according to the following formula:
[L] is the concentration (0.2 nM) of a radioactive ligand (^3 H-8-OH-DPAT) used in the test;

Experiment [2] concerns Suncus murinus (motion sickness emesis). The experiment is described as follows: Activities against motion sickness: acceleration-stimulus induced emesis in suncus. The class given is in vivo. The conditions noted are these: 30 min before acceleration-stimulus (4 cm, 1 Hz), observed 10 min, hydrochloride, 4 suncus. The source says: The activities of individual compounds against motion sickness were examined using Suncus murinus. Suncus murinus is a small animal belonging to the Soricidae family. It has been known that suncus is likely to suffer from motion sickness and is susceptible to occurrence of emesis [see "Seitai-no-kagaku (Science of living body)", 41, 538 (1990)]. Suncus is likely to show symptoms like the symptoms of human motion sickness under the stimulus of simple acceleration, finally leading to the occurrence of emesis. It has been recognized that motion sickness is caused by the occurrence of disorder in information, such as vision, equilibrium sense and the like, or by a stimulus which has never been memorized. Further, it has been recognized that the disorder in the inner earvestibular nucleus pathway and the high-order function of brain take part in the occurrence of motion sickness. Therefore, medicines capable of suppressing the occurrence of emesis of suncus would be useful for preventing and treating motion sickness, space sickness, emesis, dizziness and the like.
In this test, test compounds were individually administered intraperitoneally to suncus.
The time for occurrence of emesis was measured with respect to each of the test compounds, and the results are shown in Table 3.

For experiment [3] the following is noted: known, background; cited from earlier work.
Experiment [4] concerns nicotine-induced emesis. The experiment is described as follows: Suppression of nicotine-induced emesis in suncus. The class given is in vivo. The conditions noted are these: hydrochloride 3 mg/kg intraperitoneal, 30 min before nicotine 4 mg/kg s.c. On the procedure:
(§1) It has been known that cisplatin and nicotine have an emesis-inducing activity. In this test, it was investigated as to whether the hydrochloride of compound (1) of the present invention has the activity to suppress the occurrence of emeses which are induced by these drugs.
On the other hand, nicotine was subcutaneously administered to four suncuses (4 mg/kg). As a result, with respect to all of the suncuses, emesis was induced 11 to 29 times within 3 to 10 minutes after the administration of the nicotine.

For experiment [5], the system named is immobile state of rat in forced swimming test. The experiment is described as follows: Anti-depression activity evaluated by forced swimming test using rats. The class given is in vivo, male Wistar strain rats. The conditions noted are these: hydrochloride; for Time spent in immobile state: 30 min before test, observed 6 min, 6 rats, saline control 236 sec. On the procedure:
4. Anti-depression activity (which was evaluated by forced swimming test using rats)
When a rat is put in a water tank, the rat struggles for its life to get out of the water (that is, the rat starts a "forced swimming"). If the rat finds that it is impossible for him to get out, the rat stops swimming and assumes an immobile state. It has been known that the administration of an antidepressant can cause a violent swimming motion in the rat for getting out of the water, with a result that the time spent in the immobile state is shortened. The shortening of the time in the immobile state of the rat in the forced swimming test by the administration of the antidepressant is well correlated to the clinical anti-depression effect. Accordingly, in developing antidepressants, the forced swimming test using a rat is the most reliable screening method. In the present test, male Wistar strain rats were used. Compound 300 of the present invention (in the form of the hydrochloride thereof) was intraperitoneally administered to a rat. 30 minutes after the administration, the rat was put in a water tank and then, observed for 6 minutes. The time for the rat to keep the immobile state was measured.

In experiment [6] the test system is cisplatin-induced emesis. Briefly: Suppression of cisplatin-induced emesis in suncus. It counts as in vivo. The conditions noted are these: hydrochloride 0.3 mg/kg intraperitoneal, 30 min before cisplatin 20 mg/kg i.p. The method, then:
as §1
Cisplatin was intraperitoneally administered to each of four suncuses (20 mg/kg). As a result, with respect to all of the suncuses, emesis occurred 10 to 20 times within 40 to 70 minutes after the administration of the cisplatin.

As a reminder, the Ki is the equilibrium dissociation constant of an inhibitor or competing ligand from its target. As for `Cc1ccnc(N2CCN(CCCCOc3cnc4c(n3)CCCC4)CC2)n1` [Compound 504, 2-[4-{4-(4-Methyl-2-pyrimidinyl)-1-piperazinyl}butoxy]-5,6,7,8-tetrahydroquinoxaline], affinity in experiment [1] was put at a Ki of 3.9 nM. Further, the “Time for occurrence of emesis” value in experiment [2] (1 mg/kg intraperitoneal) is “Emesis did not occur”.

Compound `CCCOc1cccc(N2CCN(CCCCOc3cnc4c(n3)CCCC4)CC2)n1` [Compound 629, 2-[4-{4-(6-Propoxy-2-pyridyl)-1-piperazinyl}butoxy]-5,6,7,8-tetrahydroquinoxaline] had a Ki in experiment [1] of 1.8 nM. In experiment [2] (3 mg/kg intraperitoneal), the “Time for occurrence of emesis” value is “Emesis did not occur”.

Take `CC(C)Oc1cccc(N2CCN(CCCCOc3cnc4c(n3)CCCC4)CC2)n1` [Compound 630, 2-[4-{4-(6-Isopropoxy-2-pyridyl)-1-piperazinyl}butoxy]-5,6,7,8-tetrahydroquinoxaline]: the Ki in experiment [1] was 3 nM. Besides, the “Time for occurrence of emesis” value in experiment [2] (3 mg/kg intraperitoneal) is listed as “Emesis did not occur”.

For the compound `Cc1nccn1CC1CCc2c(c3ccccc3n2C)C1=O` (stereo not shown) [ondansetron], in experiment [3], the “effect on emesis induced by drugs other than cisplatin” value is “no effect”, the “effect on motion sickness” value is reported as “no effect” and the “suppression of cisplatin-induced emesis” value is recorded as “effective for suppressing cisplatin-induced emesis”.

Take `c1ccc(N2CCN(CCCCOc3cnc4c(n3)CCCC4)CC2)nc1` [Compound 300, 2-[4-{4-(2-Pyridyl)-1-piperazinyl}butoxy]-5,6,7,8-tetrahydroquinoxaline]: the “occurrence of nicotine-induced emesis” value in experiment [4] is given as “completely suppressed”. In addition, the “time for the rat to keep the immobile state (in words)” value in experiment [5] (1 mg/kg and 10 mg/kg) is recorded as “remarkably shortened”. Moreover, the “Time spent in immobile state” value was determined as 173 s in experiment [5] (1 mg/kg intraperitoneal) and 163 s in experiment [5] (10 mg/kg intraperitoneal). Moreover, the “occurrence of cisplatin-induced emesis” value in experiment [6] is on record as “completely suppressed”. For the same compound, the Ki in experiment [1] was 1.6 nM. Also, in experiment [2] (1 mg/kg intraperitoneal), the “Time for occurrence of emesis” value is listed as “Emesis did not occur”.

With `Clc1cccc(N2CCN(CCCCOc3cnc4c(n3)CCCC4)CC2)n1` [Compound 500, 2-[4-{4-(6-Chloro-2-pyridyl)-1-piperazinyl}butoxy]-5,6,7,8-tetrahydroquinoxaline], in experiment [1], affinity was put at a Ki of 2.1 nM. For the same compound, the “Time for occurrence of emesis” value in experiment [2] (1 mg/kg intraperitoneal) is “Emesis did not occur”.

`COc1cccc(N2CCN(CCCCOc3cnc4c(n3)CCCC4)CC2)n1` [Compound 539, 2-[4-{4-(6-Methoxy-2-pyridyl)-1-piperazinyl}butoxy]-5,6,7,8-tetrahydroquinoxaline] displayed a Ki in experiment [1] of 1.3 nM. Besides, in experiment [2] (1 mg/kg intraperitoneal), the “Time for occurrence of emesis” value was “Emesis did not occur”.

In experiment [1], `CCOc1cccc(N2CCN(CCCCOc3cnc4c(n3)CCCC4)CC2)n1` [Compound 524, 2-[4-{4-(6-Ethoxy-2-pyridyl)-1-piperazinyl}butoxy]-5,6,7,8-tetrahydroquinoxaline] had a Ki of 1.9 nM. The “Time for occurrence of emesis” value in experiment [2] (1 mg/kg intraperitoneal) is reported as “Emesis did not occur”.

As for `c1cnc(N2CCN(CCCCOc3cnc4c(n3)CCCC4)CC2)nc1` [Compound 301, 2-[4-{4-(2-Pyrimidinyl)-1-piperazinyl}butoxy]-5,6,7,8-tetrahydroquinoxaline], affinity in experiment [1] was put at a Ki of 6 nM. Besides, the “Time for occurrence of emesis” value in experiment [2] (3 mg/kg intraperitoneal) is recorded as “Emesis did not occur”.

In turn, `COc1cc(C)nc(N2CCN(CCCCOc3cnc4c(n3)CCCC4)CC2)n1` [Compound 562, 2-[4-{4-(4-Methoxy-6-methyl-2-pyrimidinyl)-1-piperazinyl}butoxy]-5,6,7,8-tetrahydroquinoxaline] yielded a Ki in experiment [1] of 11 nM. Besides, the “Time for occurrence of emesis” value in experiment [2] (3 mg/kg intraperitoneal) was “Emesis did not occur”.

Compound `Cc1cccc(N2CCN(CCCCOc3cnc4c(n3)CCCC4)CC2)n1` [Compound 501, 2-[4-{4-(6-Methyl-2-pyridyl)-1-piperazinyl}butoxy]-5,6,7,8-tetrahydroquinoxaline] yielded a Ki in experiment [1] of 0.6 nM. Moreover, in experiment [2] (1 mg/kg intraperitoneal), the “Time for occurrence of emesis” value was “Emesis did not occur”.
